Assays:
Type in all cases: binding
TEAD4 = TEAD4 (Homo sapiens (Human), UniProt Q15561); assay: TEAD lipid pocket TR-FRET (Lipid HTRF) probe competition assay; details: 30 mins incubation with compound; read-out: Lipid HTRF TEAD4 IC50
Method: (§1) His-tagged TEAD proteins are pre-incubated with TEAD project compounds for 30 minutes or 4 hours at room temperature. Biotinylated lipid pocket probes are then added to the TEAD/Compound mixture and incubated for 60 minutes at room temperature. The lipid pocket probe competes with the test compound for the TEAD lipid pocket until equilibrium is reached. After 60 minutes, Europium labelled anti-His (Perkin Elmer #ADO 110) and XL665 labelled streptavidin (CIS Bio 610SAXAC) are added to the TEAD/test compound/lipid pocket mixture and incubated for 30 minutes or 4 hours. […] If a TEAD lipid pocket binder such as binds and displaces the lipid pocket probe, the disruption of the TEAD:probe interaction results in a decrease in TR-FRET signal. The potency of compounds as TEAD lipid pocket binders is determined by IC50 value generated using a non-linear 4 parameter curve fit.
(§2) Note that the “Compound Number” in Table 2 and Table 3 corresponds to the “Compound Number” in Table 1.

TEAD1 = TEAD1 (Homo sapiens (Human), UniProt P28347); assay: as above; details: 30 mins incubation with compound; read-out: Lipid HTRF TEAD1 IC50
Method: as §1, §2

TEAD2 = TEAD2 (Homo sapiens (Human), UniProt Q15562); assay: as above; details: 30 mins incubation with compound; read-out: Lipid HTRF TEAD2 IC50
Method: as §1, §2

TEAD3 = TEAD3 (Homo sapiens (Human), UniProt Q99594); assay: as above; details: 30 mins incubation with compound
Method: as §1, §2

TEAD1 YAP50-100 = TEAD1 YAP50-100 (Homo sapiens (Human), UniProt P28347); assay: TEAD-YAP protein-protein interaction HTRF assay; details: TEAD1 YAP50-100 HTRF combined EC50, 30 mins incubation with compound
Method: (§3) Purified His-tagged TEAD protein (YAP Binding Domain, amino acids 217-447) is pre-incubated with Europium labelled anti-His antibody tracer (Perkin Elmer Cat #AD0110). Small molecule Inhibitors are then incubated with the TEAD-Eu protein complex for 30 minutes or 4 hours to allow for binding to TEAD protein. Biotinylated YAP peptide for TEAD-YAP assays (AA's 50-100) or biotinylated TAZ peptide for TEAD-TAZ assays (AA's 13-57) that has been pre-incubated with streptavidin −xl665 acceptor (CIS-Bio Cat #610SAXAC) or is added to the compound-TEAD mix. The TEAD-YAP-inhibitor mixture is then incubated for 60 minutes at room temperature. All reactions are carried out in a polystyrene plate. After 60 minutes, the plate is read on a plate reader using TR-FRET mode with wavelengths of 665 nm/615 nm. If YAP or TAZ binds to TEAD as expected, a TR-FRET signal results from the proximity of YAP or TAZ and TEAD after binding. If an inhibitor such as peptide 17 (Selleckchem Cat #S8164) interferes with YAP-TEAD or TAZ-TEAD binding, the disruption of the YAP or TAZ:TEAD interaction results in a decrease in TR-FRET signal. The potency of compounds as YAP:TEAD or TAZ:TEAD protein-protein interaction (PPi) inhibitors is determined by an IC50 or EC50 value generated using a non-linear four parameter curve fit. The extent to which representative examples of the disclosed compounds are able to inhibit interaction between TEAD1, TEAD2, TEAD3 or TEAD4 and YAP truncated from amino acids 50-100 or TAZ truncated from amino acids 13-57 as measured by Homogeneous Time Resolved Fluorescence (HTRF) to generate EC50 and IC50 data.
(§4) Note that the “Compound Number” in Table 4 corresponds to the “Compound Number” in Table 1. […]

TEAD3 YAP50-100 = TEAD3 YAP50-100 (Homo sapiens (Human), UniProt Q99594); assay: TEAD-YAP protein-protein interaction HTRF assay; details: TEAD3 YAP50-100 HTRF combined EC50, 30 mins incubation with compound
Method: as §3, §4

TEAD2 YAP50-100 = TEAD2 YAP50-100 (Homo sapiens (Human), UniProt Q15562); assay: TEAD-YAP protein-protein interaction HTRF assay; details: TEAD2 YAP50-100 HTRF combined EC50, 30 mins incubation with compound
Method: as §3, §4

TEAD4 YAP50-100 = TEAD4 YAP50-100 (Homo sapiens (Human), UniProt Q15561); assay: TEAD-YAP protein-protein interaction HTRF assay; details: TEAD4 YAP50-100 HTRF combined EC50, 30 mins incubation with compound
Method: as §3, §4

Chain of TEAD2 (Q15562 whole entry): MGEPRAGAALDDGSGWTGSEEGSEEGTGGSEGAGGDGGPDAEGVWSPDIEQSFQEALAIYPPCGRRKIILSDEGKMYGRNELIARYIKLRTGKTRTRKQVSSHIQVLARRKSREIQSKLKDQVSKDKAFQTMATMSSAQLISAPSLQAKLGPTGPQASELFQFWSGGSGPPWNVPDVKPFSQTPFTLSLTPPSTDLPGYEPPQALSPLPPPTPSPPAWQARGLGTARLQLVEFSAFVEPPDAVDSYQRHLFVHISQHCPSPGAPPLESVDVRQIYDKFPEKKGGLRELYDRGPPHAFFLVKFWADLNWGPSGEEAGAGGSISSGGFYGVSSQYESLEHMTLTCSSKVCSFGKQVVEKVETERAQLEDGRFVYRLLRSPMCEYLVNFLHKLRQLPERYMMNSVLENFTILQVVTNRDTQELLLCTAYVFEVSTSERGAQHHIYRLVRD
Chain of TEAD4 (Q15561 whole entry, species assumed): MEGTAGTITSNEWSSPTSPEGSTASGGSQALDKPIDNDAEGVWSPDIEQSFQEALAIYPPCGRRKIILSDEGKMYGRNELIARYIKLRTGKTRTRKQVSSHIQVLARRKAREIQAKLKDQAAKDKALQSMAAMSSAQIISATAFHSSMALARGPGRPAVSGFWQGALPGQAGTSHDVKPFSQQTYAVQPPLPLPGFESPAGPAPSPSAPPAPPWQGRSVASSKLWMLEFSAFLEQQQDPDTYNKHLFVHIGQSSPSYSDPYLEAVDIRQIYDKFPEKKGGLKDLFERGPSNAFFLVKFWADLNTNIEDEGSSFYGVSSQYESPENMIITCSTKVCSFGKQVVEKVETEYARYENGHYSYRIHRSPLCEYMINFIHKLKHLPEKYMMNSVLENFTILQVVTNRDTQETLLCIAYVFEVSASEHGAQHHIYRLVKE
Chain of TEAD3 YAP50-100 (Q99594 218-435): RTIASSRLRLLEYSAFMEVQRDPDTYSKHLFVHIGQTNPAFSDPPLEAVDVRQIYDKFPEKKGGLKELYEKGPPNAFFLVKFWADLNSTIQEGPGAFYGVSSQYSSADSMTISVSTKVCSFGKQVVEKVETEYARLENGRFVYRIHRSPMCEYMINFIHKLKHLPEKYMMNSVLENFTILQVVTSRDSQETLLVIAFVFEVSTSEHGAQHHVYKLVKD
Chain of TEAD2 YAP50-100 (Q15562 217-447): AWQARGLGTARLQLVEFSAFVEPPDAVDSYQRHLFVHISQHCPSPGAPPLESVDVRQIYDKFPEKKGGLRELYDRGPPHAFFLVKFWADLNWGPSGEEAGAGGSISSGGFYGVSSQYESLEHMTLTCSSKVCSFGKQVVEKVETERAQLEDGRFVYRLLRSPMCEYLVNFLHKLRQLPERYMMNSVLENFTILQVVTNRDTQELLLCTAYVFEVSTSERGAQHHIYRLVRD
Chain of TEAD1 (P28347 whole entry, species assumed): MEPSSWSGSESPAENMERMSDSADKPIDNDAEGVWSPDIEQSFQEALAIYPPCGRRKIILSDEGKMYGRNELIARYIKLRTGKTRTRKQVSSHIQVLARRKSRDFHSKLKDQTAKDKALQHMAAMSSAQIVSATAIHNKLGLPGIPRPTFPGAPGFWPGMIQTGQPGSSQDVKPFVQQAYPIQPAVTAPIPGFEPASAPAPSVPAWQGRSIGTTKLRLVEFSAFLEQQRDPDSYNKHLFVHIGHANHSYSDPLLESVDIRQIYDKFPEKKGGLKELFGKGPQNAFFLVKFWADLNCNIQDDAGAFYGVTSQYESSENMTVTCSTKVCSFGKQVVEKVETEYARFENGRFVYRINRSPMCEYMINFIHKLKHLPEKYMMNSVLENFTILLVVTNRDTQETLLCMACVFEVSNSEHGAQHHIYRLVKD
Chain of TEAD1 YAP50-100 (P28347 209-426): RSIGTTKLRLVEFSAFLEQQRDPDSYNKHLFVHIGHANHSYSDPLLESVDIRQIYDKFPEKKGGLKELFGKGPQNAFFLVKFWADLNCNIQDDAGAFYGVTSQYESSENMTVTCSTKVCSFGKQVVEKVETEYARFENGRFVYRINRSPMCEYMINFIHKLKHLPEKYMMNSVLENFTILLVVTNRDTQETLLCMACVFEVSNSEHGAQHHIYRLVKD
Chain of TEAD4 YAP50-100 (Q15561 217-434): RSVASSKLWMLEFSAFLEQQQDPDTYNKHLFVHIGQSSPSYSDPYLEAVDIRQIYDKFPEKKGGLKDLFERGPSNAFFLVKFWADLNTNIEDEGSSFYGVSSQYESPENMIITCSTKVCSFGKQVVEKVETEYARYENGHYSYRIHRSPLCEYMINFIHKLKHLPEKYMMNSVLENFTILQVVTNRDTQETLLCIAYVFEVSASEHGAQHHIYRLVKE
Chain of TEAD3 (Q99594 whole entry, species assumed): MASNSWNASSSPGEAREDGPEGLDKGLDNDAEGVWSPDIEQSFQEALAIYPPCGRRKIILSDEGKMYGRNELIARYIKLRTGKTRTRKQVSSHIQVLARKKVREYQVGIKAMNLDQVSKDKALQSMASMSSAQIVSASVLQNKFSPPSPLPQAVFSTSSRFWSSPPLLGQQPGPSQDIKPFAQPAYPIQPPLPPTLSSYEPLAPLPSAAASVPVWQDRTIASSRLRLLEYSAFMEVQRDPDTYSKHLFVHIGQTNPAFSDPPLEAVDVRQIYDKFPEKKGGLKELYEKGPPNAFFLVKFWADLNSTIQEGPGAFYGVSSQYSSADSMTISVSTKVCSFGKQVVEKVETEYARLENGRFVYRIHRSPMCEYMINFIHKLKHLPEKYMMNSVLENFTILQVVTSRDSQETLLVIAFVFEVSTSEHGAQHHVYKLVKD

SMILES | IC50 (TEAD4) [µM] | IC50 (TEAD1) [µM] | IC50 (TEAD2) [µM] | IC50 (TEAD3) [µM] | EC50 (TEAD1 YAP50-100) [µM] | EC50 (TEAD3 YAP50-100) [µM] | EC50 (TEAD2 YAP50-100) [µM] | EC50 (TEAD4 YAP50-100) [µM]
C=C(CNc1cc(-c2ccc(C(C)C)cc2)c2c(c1CO)CCO2)C(N)=O [Compound 13, 2-[[[4-(hydroxymethyl)-7-(4-isopropylphenyl)-2,3-dihydrobenzofuran-5-yl]amino]methyl]prop-2-enamide] | 0.18 | 0.78 | 0.22 | 11 | 0.33 | 22 | 0.04 | 0.18
C=C(CNc1cc(-c2ccc(C(C)C)cn2)c2c(c1C#N)CCO2)C(=O)O [Compound 47, 2-[[[4-cyano-7-(5-isopropyl-2-pyridyl)-2,3-dihydrobenzofuran-5-yl]amino]methyl]prop-2-enoic acid] | 1.5 | 2.2 | 2.7 | > 50 | 1.9 | > 50 | 1.9 | 3.4
C=C(CNc1cc(-c2ccc(C(C)C)cc2)c2c(c1C#N)CCO2)B(O)O [Compound 10, 1-[[[4-cyano-7-(4-isopropylphenyl)-2,3-dihydrobenzofuran-5-yl]amino]methyl]vinylboronic acid] | 1.3 | 6.3 | 2.7 | > 50 | 5.7 | > 50 | 2.1 | 2.1
C=C(CNc1cc(-c2c(F)cc(C(C)C)cc2F)c2c(c1C#N)CCO2)C(=O)O [Compound 28, 2-[[[4-cyano-7-(2,6-difluoro-4-isopropyl-phenyl)-2,3-dihydrobenzofuran-5-yl]amino]methyl]prop-2-enoic acid] | 0.32 | 0.69 | 0.35 | 16 | > 50 | > 50 | > 50 | > 50
C=C(CNc1cc(-c2ccc(C(C)C)cc2)c2c(c1C#N)CCO2)C(=O)N(C)C [Compound 6, 2-[[[4-cyano-7-(4-isopropylphenyl)-2,3-dihydrobenzofuran-5-yl]amino]methyl]-N,N-dimethyl-prop-2-enamide] | 0.5 | 1.1 | 3.5 | > 50 | 0.97 | > 50 | 2.8 | 1
C=C(CNc1cc(-c2ccc(OC(F)(F)F)cc2)c2ncsc2c1C#N)C(N)=O [Compound 42, 2-[[[7-cyano-4-[4-(trifluoromethoxy)phenyl]-1,3-benzothiazol-6-yl]amino]methyl]prop-2-enamide] | 0.26 | 0.37 | 0.14 | > 50 | > 50 | > 50 | > 50 | > 50
C=C(CNc1cc(-c2ccc(C(C)C)cc2)c2c(c1C#N)CCO2)C(N)=O [Compound 4, 2-[[[4-cyano-7-(4-isopropylphenyl)-2,3-dihydrobenzofuran-5-yl]amino]methyl]prop-2-enamide] | 0.08 | 0.32 | 0.1 | 10 | 0.23 | 13 | 0.05 | 0.16
C=C(CNc1cc2c(c(-c3ccc(C(C)C)cc3)c1)OCC2)C(N)=O [Compound 2, 2-[[[7-(4-isopropylphenyl)-2,3-dihydrobenzofuran-5-yl]amino]methyl]prop-2-enamide] | 0.03 | 0.59 | 0.08 | 18 | 0.46 | 18 | 0.07 | 0.09
C=C(CNc1cc(-c2ccc(C(C)C(F)(F)F)cc2)c2c(c1C#N)CCO2)C(=O)O (single isomer, unassigned) [Enantiomer D from Example 16, 2-(((4-cyano-7-(4-(1,1,1-trifluoropropan-2-yl)phenyl)-2,3-dihydrobenzofuran-5-yl)amino)methyl)acrylic acid] | 0.03 | 0.08 | 0.16 | 6.1 | 0.04 | > 50 | 0.07 | 0.1

— patent US11787775B2, “Therapeutic compounds and methods of use” (priority 2020, dated 2023)
